# Laboratory results: patent US20240190857A1, “METHODS FOR MANUFACTURE OF SMALL MOLECULE ACTIVATORS OF TIE-2” (EyePoint Pharmaceuticals, Inc., priority 2020, published 2024)
# Like-named read-outs stand apart in the source and are kept apart here.
# Assay: Solubility of compounds in various solvents
# Format: physicochemical
# Conditions: for solubility: organic solvent or mixture, read-out: Observation: solubility / saturation concentration (S.C.)
"solubility (17 °C, DMF, 17-22° C.) [mg/mL]","solubility (17 °C, Toluene, 17-22° C.) [mg/mL]","solubility (50 °C, THF, 50-55° C.) [mg/mL]","solubility (60 °C, 2-MeTHF, 60-65° C.) [mg/mL]",SMILES,"solubility (17 °C, Acetone, 17-22° C.) [mg/mL]","solubility (17 °C, Acetone:H2O (80:20), 17-22° C.) [mg/mL]","solubility (17 °C, DMSO, 17-22° C.) [mg/mL]","solubility (17 °C, MeOH, 17-22° C.) [mg/mL]","solubility (17 °C, THF, 17-22° C.) [mg/mL]","Observation: solubility / saturation concentration (S.C.) (MeOH, 17-22° C.)"
,,,,"COC(=O)N[C@@H](Cc1ccccc1)C(=O)N[C@@H](Cc1ccc(NS(=O)(=O)[O-])cc1)c1csc(-c2cccs2)n1.[Na+] [Compound 1, sodium (4-((S)-2-((S)-2-((methoxycarbonyl)amino)-3-phenylpropanamido)-2-(2-(thiophen-2-yl)thiazol-4-yl)ethyl)phenyl)sulfamate]",< 60,≥ 53,≥ 106,~30,< 40,
≥ 100,< 5,~100,~15,"COC(=O)N[C@@H](Cc1ccccc1)C(=O)N[C@@H](Cc1ccc([N+](=O)[O-])cc1)c1csc(-c2cccs2)n1 [Compound F-3, methyl ((S)-1-(((S)-2-(4-nitrophenyl)-1-(2-(thiophen-2-yl)thiazol-4-yl)ethyl)amino)-1-oxo-3-phenylpropan-2-yl)carbamate]",,,,,~5,
,,,,"CN(C)C.COC(=O)N[C@@H](Cc1ccccc1)C(=O)N[C@@H](Cc1ccc(NS(=O)(=O)O)cc1)c1csc(-c2cccs2)n1 [Compound F-5, trimethylammonium (4-((S)-2-((S)-2-((methoxycarbonyl)amino)-3-phenylpropanamido)-2-(2-(thiophen-2-yl)thiazol-4-yl)ethyl)phenyl)sulfamate]",,,,,,Soluble at 93 mg/mL
